Experimental data published in US9006455B2 (Bristol-Myers Squibb Company, priority 2009, dated 2015).

system: HCV 1b genotype; assay: HCV Replicon assay (HCV 1b genotype); assay type: cell-based; conditions: Hepatitis C virus; HCV 1b genotype replicon; read-out: EC50
Protocol: An HCV Replicon assay was utilized in the present disclosure, and was prepared, conducted and validated as described in commonly owned PCT/US2006/022197 and in O'Boyle et al., Antimicrob. Agents Chemother., 49(4):1346-1353 (April 2005). Assay methods incorporating luciferase reporters have also been used as described (Apath.com).
HCV-neo replicon cells and replicon cells containing resistance substitutions in the NS5A region were used to test the currently described family of compounds. The compounds were determined to have differing degrees of reduced inhibitory activity on cells containing mutations vs. the corresponding inhibitory potency against wild-type cells. Thus, the compounds of the present disclosure can be effective in inhibiting the function of the HCV NS5A protein and are understood to be as effective in combinations as previously described in application PCT/US2006/022197 and commonly owned WO 04/014852. It should be understood that the compounds of the present disclosure can inhibit multiple genotypes of HCV. […] In one embodiment, compounds of the present disclosure are inhibitory versus 1a, 1b, 2a, 2b, 3a, 4a, and 5a genotypes.

First: COC(=O)N[C@H](C(=O)N1CCC[C@H]1c1nc2ccc(-c3ccc4cc(-c5ccc6nc([C@@H]7CCCN7C(=O)[C@@H](NC(=O)OC)C7CCOCC7)[nH]c6c5)ccc4c3)cc2[nH]1)C(C)C [Example 27, Methyl((1S)-2-((2S)-2-(5-(6-(2-((2S)-1-((2S)-2-((methoxycarbonyl)amino)-3-methylbutanoyl)-2-pyrrolidinyl)-1H-benzimidazol-5-yl)-2-naphthyl)-1H-benzimidazol-2-yl)-1-pyrrolidinyl)-2-oxo-1-(tetrahydro-2H-pyran-4-yl)ethyl)carbamate]
Second: COC(=O)N[C@H](C(=O)N1[C@@H]2C[C@@H]2C[C@H]1c1nc2ccc(-c3ccc4cc(-c5ccc6cc(-c7ccc8nc([C@@H]9C[C@H]%10C[C@H]%10N9C(=O)[C@@H](NC(=O)OC)C(C)C)[nH]c8c7)ccc6c5)ccc4c3)cc2[nH]1)C(C)C [Example 46, Methyl((1S)-1-(((1R,3S,5R)-3-(5-(6′-(2-((1R,3S,5R)-2-((2S)-2-((methoxycarbonyl)amino)-3-methylbutanoyl)-2-azabicyclo[3.1.0]hex-3-yl)-1H-benzimidazol-5-yl)-2,2′-binaphthalen-6-yl)-1H-benzimidazol-2-yl)-2-azabicyclo[3.1.0]hex-2-yl)carbonyl)-2-methylpropyl)carbamate]
The EC50 of the first is 36000-fold lower: 0.00477 nM for the first, 170 nM for the second.

First: COC(=O)N[C@H](C(=O)N1[C@@H]2C[C@@H]2C[C@H]1c1nc2ccc(-c3ccc4nc(-c5ccc6nc([C@@H]7C[C@H]8C[C@H]8N7C(=O)[C@@H](NC(=O)OC)C7CCOCC7)[nH]c6c5)cnc4c3)cc2[nH]1)C1CCOCC1 [Example 38, Dimethyl(2,6-quinoxalinediylbis(1H-benzimidazole-5,2-diyl(1R,3S,5R)-2-azabicyclo[3.1.0]hexane-3,2-diyl((1S)-2-oxo-1-(tetrahydro-2H-pyran-4-yl)-2,1-ethanediyl)))biscarbamate]
Second: COC(=O)N[C@H](C(=O)N1[C@@H]2C[C@@H]2C[C@H]1c1ncc(-c2ccc3nc(-c4ccc5nc([C@@H]6C[C@H]7C[C@H]7N6C(=O)[C@@H](NC(=O)OC)C6CCOCC6)[nH]c5c4)cnc3c2)[nH]1)C1CCOCC1 [Example 53, Methyl((1S)-2-((1R,3S,5R)-3-(4-(2-(2-((1R,3S,5R)-2-((2S)-2-((methoxycarbonyl)amino)-2-(tetrahydro-2H-pyran-4-yl)acetyl)-2-azabicyclo[3.1.0]hex-3-yl)-1H-benzimidazol-5-yl)-6-quinoxalinyl)-1H-imidazol-2-yl)-2-azabicyclo[3.1.0]hex-2-yl)-2-oxo-1-(tetrahydro-2H-pyran-4-yl)ethyl)carbamate]
The EC50 of the first is 43-fold lower: 0.0421 nM for the first, 1.81 nM for the second.

For `COC(=O)N[C@H](C(=O)N1[C@@H]2C[C@@H]2C[C@H]1c1ncc(-c2ccc3nc(-c4ccc5nc([C@@H]6C[C@H]7C[C@H]7N6C(=O)[C@@H](NC(=O)OC)C(C)C)[nH]c5c4)cnc3c2)[nH]1)C(C)C` [Example 52, Methyl((1S)-1-(((1R,3S,5R)-3-(4-(2-(2-((1R,3S,5R)-2-((2S)-2-((methoxycarbonyl)amino)-3-methylbutanoyl)-2-azabicyclo[3.1.0]hex-3-yl)-1H-benzimidazol-5-yl)-6-quinoxalinyl)-1H-imidazol-2-yl)-2-azabicyclo[3.1.0]hex-2-yl)carbonyl)-2-methylpropyl)carbamate], the EC50 was 0.0059 nM.

same assay, conditions: Hepatitis C virus; HCV 1b genotype replicon; read-out: Range (EC50 values against HCV 1b)

First: COC(=O)N[C@H](C(=O)N1CCC[C@H]1c1nc2nc(-c3ccc4cc(-c5cnc6[nH]c([C@@H]7CCCN7C(=O)[C@@H](NC(=O)OC)C(C)C)nc6n5)ccc4c3)cnc2[nH]1)C(C)C [Example 24, Methyl((1S)-1-(((2S)-2-(5-(6-(2-((2S)-1-((2S)-2-((methoxycarbonyl)amino)-3-methylbutanoyl)-2-pyrrolidinyl)-1H-imidazo[4,5-b]pyrazin-5-yl)-2-naphthyl)-1H-imidazo[4,5-b]pyrazin-2-yl)-1-pyrrolidinyl)carbonyl)-2-methylpropyl)carbamate]
Second: COC(=O)N[C@H](C(=O)N1CCC[C@@H]1c1nc2nc(-c3ccc4cc(-c5cnc6[nH]c([C@@H]7CCCN7C(=O)[C@@H](NC(=O)OC)C(C)C)nc6n5)ccc4c3)cnc2[nH]1)C(C)C [Example 25A, Methyl((1S)-1-(((2S)-2-(5-(6-(2-((2R)-1-((2S)-2-((methoxycarbonyl)amino)-3-methylbutanoyl)-2-pyrrolidinyl)-1H-imidazo[4,5-b]pyrazin-5-yl)-2-naphthyl)-1H-imidazo[4,5-b]pyrazin-2-yl)-1-pyrrolidinyl)carbonyl)-2-methylpropyl)carbamate]
The EC50 of the first is lower: 0.0101 to 1 nM for the first, 1.01 to 1000 nM for the second.

First: COC(=O)N[C@H](C(=O)N1CCC[C@@H]1c1nc2nc(-c3ccc4cc(-c5cnc6[nH]c([C@H]7CCCN7C(=O)[C@@H](NC(=O)OC)C(C)C)nc6n5)ccc4c3)cnc2[nH]1)C(C)C [Example 25B, Methyl((1S)-1-(((2R)-2-(5-(6-(2-((2R)-1-((2S)-2-((methoxycarbonyl)amino)-3-methylbutanoyl)-2-pyrrolidinyl)-1H-imidazo[4,5-b]pyrazin-5-yl)-2-naphthyl)-1H-imidazo[4,5-b]pyrazin-2-yl)-1-pyrrolidinyl)carbonyl)-2-methylpropyl)carbamate]
Second: COC(=O)N[C@H](C(=O)N1CCC[C@H]1c1ncc(-c2ccc3cc(-c4cnc([C@@H]5CCCN5C(=O)[C@@H](NC(=O)OC)C(C)C)[nH]4)ccc3c2)[nH]1)C(C)C [Example 32]
The EC50 of the first is higher: 1.01 to 1000 nM for the first, 0.0101 to 1 nM for the second. The second is the more potent here.

`COC(=O)N[C@H](C(=O)N1CCC[C@H]1c1nc2ccc(-c3ccc4cc(-c5ccc6nc([C@@H]7CCCN7C(=O)[C@@H](NC(=O)OC)C7CCOCC7)[nH]c6c5)ccc4c3)cc2[nH]1)C1CCOCC1` [Example 26, Dimethyl(2,6-naphthalenediylbis(1H-benzimidazole-5,2-diyl(2S)-2,1-pyrrolidinediyl((1S)-2-oxo-1-(tetrahydro-2H-pyran-4-yl)-2,1-ethanediyl)))biscarbamate] and `COC(=O)N[C@H](C(=O)N1CCC[C@H]1c1ncc(-c2ccc3cc(-c4ccc5nc([C@@H]6CCCN6C(=O)[C@@H](NC(=O)OC)C6CCOCC6)[nH]c5c4)ccc3c2)[nH]1)C1CCOCC1` [Example 28, Methyl((1S)-2-((2S)-2-(4-(6-(2-((2S)-1-((2S)-2-((methoxycarbonyl)amino)-2-(tetrahydro-2H-pyran-4-yl)acetyl)-2-pyrrolidinyl)-1H-benzimidazol-5-yl)-2-naphthyl)-1H-imidazol-2-yl)-1-pyrrolidinyl)-2-oxo-1-(tetrahydro-2H-pyran-4-yl)ethyl)carbamate] fall in the same range of EC50: 0.0101 to 1 nM for the first, 0.0101 to 1 nM for the second.

`COC(=O)N[C@H](C(=O)N1CCC[C@H]1c1ncc(C#Cc2ccc3cc(C#Cc4cnc([C@@H]5CCCN5C(=O)[C@@H](NC(=O)OC)C(C)C)[nH]4)ccc3c2)[nH]1)C(C)C` [Example 31, Methyl((1S)-1-(((2S)-2-(4-((6-((2-((2S)-1-((2S)-2-((methoxycarbonyl)amino)-3-methylbutanoyl)-2-pyrrolidinyl)-1H-imidazol-4-yl)ethynyl)-2-naphthyl)ethynyl)-1H-imidazol-2-yl)-1-pyrrolidinyl)carbonyl)-2-methylpropyl)carbamate] and `COC(=O)N[C@H](C(=O)N1CCC[C@H]1c1ncc(-c2ccc3cc(-c4ccc5c(ccc6nc([C@@H]7CCCN7C(=O)[C@@H](NC(=O)OC)C7CCOCC7)[nH]c65)c4)ccc3c2)[nH]1)C1CCOCC1` [Example 42] fall in the same range of EC50: 0.0101 to 1 nM for the first, 0.0101 to 1 nM for the second.

`COC(=O)N[C@H](C(=O)N1[C@@H]2C[C@@H]2C[C@H]1c1nc2ccc(-c3ccc4nc(-c5ccc6nc([C@@H]7C[C@H]8C[C@H]8N7C(=O)[C@@H](NC(=O)OC)C7CCOCC7)[nH]c6c5)cnc4c3)cc2[nH]1)C1CCOCC1` [Example 38, Dimethyl(2,6-quinoxalinediylbis(1H-benzimidazole-5,2-diyl(1R,3S,5R)-2-azabicyclo[3.1.0]hexane-3,2-diyl((1S)-2-oxo-1-(tetrahydro-2H-pyran-4-yl)-2,1-ethanediyl)))biscarbamate] and `COC(=O)N[C@H](C(=O)N1[C@@H]2C[C@@H]2C[C@H]1c1nc2ccc(-c3ccc4nc(-c5ccc6nc([C@@H]7C[C@H]8C[C@H]8N7C(=O)[C@@H](NC(=O)OC)C7CCOCC7)[nH]c6c5)ccc4c3)cc2[nH]1)C1CCOCC1` [Example 39, Dimethyl(2,6-quinolinediylbis(1H-benzimidazole-5,2-diyl(1R,3S,5R)-2-azabicyclo[3.1.0]hexane-3,2-diyl((1S)-2-oxo-1-(tetrahydro-2H-pyran-4-yl)-2,1-ethanediyl)))biscarbamate] fall in the same range of EC50: 0.0101 to 1 nM for the first, 0.0101 to 1 nM for the second.

`COC(=O)N[C@H](C(=O)N1[C@@H]2C[C@@H]2C[C@H]1c1ncc(-c2ccc3cc(-c4ccc5nc([C@@H]6C[C@H]7C[C@H]7N6C(=O)[C@@H](NC(=O)OC)C6CCOCC6)[nH]c5c4)ccc3c2)[nH]1)C1CCOCC1` [Example 45, Methyl((1S)-2-((1R,3S,5R)-3-(4-(6-(2-((1R,3S,5R)-2-((2S)-2-((methoxycarbonyl)amino)-2-(tetrahydro-2H-pyran-4-yl)acetyl)-2-azabicyclo[3.1.0]hex-3-yl)-1H-benzimidazol-5-yl)-2-naphthyl)-1H-imidazol-2-yl)-2-azabicyclo[3.1.0]hex-2-yl)-2-oxo-1-(tetrahydro-2H-pyran-4-yl)ethyl)carbamate] and `COC(=O)N[C@H](C(=O)N1[C@@H]2C[C@@H]2C[C@H]1c1nc(Cl)c(-c2ccc3cc(-c4ccc5nc([C@@H]6C[C@H]7C[C@H]7N6C(=O)[C@@H](NC(=O)OC)C6CCOCC6)[nH]c5c4)ccc3c2)[nH]1)C1CCOCC1` [Example 50, Methyl((1S)-2-((1R,3S,5R)-3-(4-chloro-5-(6-(2-((1R,3S,5R)-2-((2S)-2-((methoxycarbonyl)amino)-2-(tetrahydro-2H-pyran-4-yl)acetyl)-2-azabicyclo[3.1.0]hex-3-yl)-1H-benzimidazol-5-yl)-2-naphthyl)-1H-imidazol-2-yl)-2-azabicyclo[3.1.0]hex-2-yl)-2-oxo-1-(tetrahydro-2H-pyran-4-yl)ethyl)carbamate] fall in the same range of EC50: 0.0101 to 1 nM for the first, 0.0101 to 1 nM for the second.

`COC(=O)N[C@H](C(=O)N1[C@@H]2C[C@@H]2C[C@H]1c1nc2ccc(-c3ccc4cc(-c5ccc6cc(-c7ccc8nc([C@@H]9C[C@H]%10C[C@H]%10N9C(=O)[C@@H](NC(=O)OC)C(C)C)[nH]c8c7)ccc6c5)ccc4c3)cc2[nH]1)C(C)C` [Example 46, Methyl((1S)-1-(((1R,3S,5R)-3-(5-(6′-(2-((1R,3S,5R)-2-((2S)-2-((methoxycarbonyl)amino)-3-methylbutanoyl)-2-azabicyclo[3.1.0]hex-3-yl)-1H-benzimidazol-5-yl)-2,2′-binaphthalen-6-yl)-1H-benzimidazol-2-yl)-2-azabicyclo[3.1.0]hex-2-yl)carbonyl)-2-methylpropyl)carbamate] and `COC(=O)N[C@H](C(=O)N1[C@@H]2C[C@@H]2C[C@H]1c1ncc(-c2ccc3nc(-c4ccc5nc([C@@H]6C[C@H]7C[C@H]7N6C(=O)[C@@H](NC(=O)OC)C6CCOCC6)[nH]c5c4)cnc3c2)[nH]1)C1CCOCC1` [Example 53, Methyl((1S)-2-((1R,3S,5R)-3-(4-(2-(2-((1R,3S,5R)-2-((2S)-2-((methoxycarbonyl)amino)-2-(tetrahydro-2H-pyran-4-yl)acetyl)-2-azabicyclo[3.1.0]hex-3-yl)-1H-benzimidazol-5-yl)-6-quinoxalinyl)-1H-imidazol-2-yl)-2-azabicyclo[3.1.0]hex-2-yl)-2-oxo-1-(tetrahydro-2H-pyran-4-yl)ethyl)carbamate] fall in the same range of EC50: 1.01 to 1000 nM for the first, 1.01 to 1000 nM for the second.
